pIC50: −log10 of the molar value.
Tests used:
[1] = molecular target: xanthine oxidase (bovine milk-derived) (Bos taurus, UniProt P80457); assay: XO inhibition assay in vitro (UV absorbance at 295 nm); assay type: biochemical; conditions: xanthine substrate, 37 °C, mean of three independent experiments, read-out: IC50, direct XO inhibitory activity
Method: Prior to the assay, the compounds were freshly dissolved in a mixture of 30% dimethyl sulfoxide (DMSO; FUJIFILM Wako) and 70% phosphate buffer (100 mM, pH 7.5) to prepare test solutions at final concentrations ranging from 0 to 100 µM. In each well of a 96-well microplate, 50 µL of the test solution was mixed with 60 µL of buffer and 30 µL of xanthine oxidase (7.8 mU/mL, bovine milk-derived; Sigma-Aldrich). After preincubation at 37 °C for 10 min, the reaction was initiated by adding 60 µL of xanthine substrate (150 µM; FUJIFILM Wako). Absorbance at 295 nm was monitored for 30 min at 37 °C using a Spark 10 M microplate reader (Tecan Group Ltd., Männedorf, Switzerland). XO inhibitory activity was expressed as percentage inhibition, calculated using the formula Inhibition (%) = 100 × [1 − (B/A)], where A and B represent the absorbance increase in the absence and presence of the test compound, respectively. All measurements were performed in triplicate.
All experimental data are presented as mean ± SEM. […] Data from the in vitro XO inhibition assay are shown as mean values from three independent experiments. IC50 values were calculated by nonlinear regression analysis using dose–response curves generated from at least six concentrations of each compound. All statistical analyses were performed using GraphPad Prism version 10 (GraphPad Software, San Diego, CA, USA).

[2] = tested on: AML12 hepatocytes; assay: UA production by AML12 cells stimulated with UA precursors; assay type: cell-based; conditions: for maximum reduction of UA production: guanosine + inosine (GI mixture) 100 µM each, vs control (0 µM); for UA production: UA precursor xanthine
Method: AML12 hepatocytes used in this study were acquired from ATCC (CRL-2254), Manassas, VA, USA. AML12 cells were maintained in DMEM/F-12 (Life Technologies, Grand Island, NY, USA) supplemented with 10% (v/v) fetal bovine serum (FBS; Hyclone, Logan, UT, USA), recombinant human insulin (5 µg/mL), human transferrin (5 µg/mL), and dexamethasone (40 ng/mL), each obtained from FUJIFILM Wako, as well as selenium (3 ng/mL, Sigma-Aldrich) and penicillin–streptomycin mixed solution (100 U/mL penicillin and 100 µg/mL streptomycin, Nacalai Tesque), under a humidified atmosphere of 5% CO2 at 37 °C. Culture of AML12 hepatocytes and measurement of UA production were conducted following a previously reported protocol.Cells were seeded at a density of 1.0 × 10^5 cells per well in 24-well plates and cultured for 72 h in complete medium, followed by 24 h in serum-free DMEM/F-12. After serum deprivation, cells were rinsed once with calcium- and magnesium-free phosphate-buffered saline [PBS (–)] and incubated in 200 µL of balanced salt solution (BSS) containing […], 5 mM KCl, 1 mM MgCl2, 0.8 mM CaCl2, 25 mM NaHCO3, 1 mM NaH2PO4, 10 mM HEPES, and 5 mM glucose. […] The final concentration of DMSO in all samples was adjusted to 0.15%. After a 2-h incubation, 200 µL of the reaction mixture was collected for UA quantification. The UA concentration in BSS was used as an indicator of UA production. Subsequently, cells were washed with PBS (–) and lysed in 300 µL of buffer containing 50 mM Tris and 1 mM sodium phosphate (pH 7.5). Lysates were sonicated and centrifuged (12,000× g, 5 min, 4 °C), and the supernatants were used for protein quantification using the Pierce™ BCA Protein Assay Kit (Thermo Fisher Scientific Inc., Waltham, MA, USA). UA levels were measured using the uricase-based Uric Acid C-Test Wako (FUJIFILM Wako). UA production was expressed as nanomoles per 2 h per milligram of cellular protein (nmol/2 h/mg protein).

[3] = tested on: AML12 hepatocytes; assay: Cell viability, WST-8 assay; assay type: cell-based; conditions: concentrations up to 100 µM, 2 h
Method: The viability of AML12 cells was determined using the WST-8 assay provided in the Cell Counting Kit-8 (Dojindo Laboratories, Kumamoto, Japan). Cells were initially seeded at 5 × 10^3 cells per well in 96-well plates and maintained in DMEM/F-12 medium containing 10% (v/v) FBS for 72 h. To induce serum deprivation, the medium was replaced with serum-free DMEM/F-12, and cells were incubated for an additional 24 h. […] The treatment lasted for 2 h. Subsequently, cells were washed again with BSS and incubated with the WST-8 reagent for 1 h. Absorbance was measured at 490 nm using a microplate reader (MTP-310Lab; CORONA […] Co., Ltd., […], Japan). Cell viability was normalized to the DMSO control (0 μM), which was set at 100%.

[4] = tested on: XO; conditions: read-out: IC50, XO inhibition (previous report); cited from earlier work

Chain of xanthine oxidase (bovine milk-derived) (P80457 whole entry): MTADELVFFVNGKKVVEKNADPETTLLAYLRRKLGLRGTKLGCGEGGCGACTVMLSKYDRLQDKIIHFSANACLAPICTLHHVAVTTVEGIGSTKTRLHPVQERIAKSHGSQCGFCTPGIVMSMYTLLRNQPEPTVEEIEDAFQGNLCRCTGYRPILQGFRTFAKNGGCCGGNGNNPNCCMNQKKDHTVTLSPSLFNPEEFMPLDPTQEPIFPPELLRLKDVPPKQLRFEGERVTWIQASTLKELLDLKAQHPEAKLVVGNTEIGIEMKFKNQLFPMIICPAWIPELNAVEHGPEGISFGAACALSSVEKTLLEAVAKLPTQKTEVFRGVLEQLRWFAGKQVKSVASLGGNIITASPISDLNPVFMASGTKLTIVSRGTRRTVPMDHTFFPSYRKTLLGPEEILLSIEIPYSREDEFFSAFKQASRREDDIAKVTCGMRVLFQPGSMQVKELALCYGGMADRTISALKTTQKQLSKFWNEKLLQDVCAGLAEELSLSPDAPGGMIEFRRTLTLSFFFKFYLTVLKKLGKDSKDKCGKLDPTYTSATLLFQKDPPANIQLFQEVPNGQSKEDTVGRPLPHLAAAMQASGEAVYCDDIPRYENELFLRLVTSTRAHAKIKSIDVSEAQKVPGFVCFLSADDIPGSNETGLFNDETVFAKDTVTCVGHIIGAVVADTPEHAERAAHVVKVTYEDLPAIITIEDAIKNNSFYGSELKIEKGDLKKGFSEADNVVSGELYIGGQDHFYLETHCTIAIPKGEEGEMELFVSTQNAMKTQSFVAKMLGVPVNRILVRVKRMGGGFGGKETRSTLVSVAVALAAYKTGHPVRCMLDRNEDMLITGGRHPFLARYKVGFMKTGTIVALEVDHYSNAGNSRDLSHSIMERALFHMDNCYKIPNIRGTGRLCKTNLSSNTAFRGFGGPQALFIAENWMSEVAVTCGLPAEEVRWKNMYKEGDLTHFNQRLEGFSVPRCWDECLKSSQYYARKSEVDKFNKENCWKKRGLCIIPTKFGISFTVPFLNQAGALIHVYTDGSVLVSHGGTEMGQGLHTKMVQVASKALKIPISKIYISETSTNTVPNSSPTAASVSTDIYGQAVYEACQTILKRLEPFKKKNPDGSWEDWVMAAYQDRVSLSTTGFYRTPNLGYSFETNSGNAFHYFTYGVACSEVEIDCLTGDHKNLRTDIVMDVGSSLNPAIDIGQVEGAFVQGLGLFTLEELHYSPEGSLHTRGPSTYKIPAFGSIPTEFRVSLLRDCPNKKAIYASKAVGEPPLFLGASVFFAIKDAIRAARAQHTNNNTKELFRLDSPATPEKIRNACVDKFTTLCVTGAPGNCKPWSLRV

Row | SMILES | pIC50 [1] | maximum reduction of UA production ([2]; 100 µM, 2 h) | cytotoxic effects (cell viability) [3] | pIC50 [4] | UA production ([2]; 10 µM) [nmol/2 h/mg protein] | UA production ([2]; 30 µM) [nmol/2 h/mg protein] | UA production ([2]; 100 µM) [nmol/2 h/mg protein] | effect on UA production ([2]; concentrations up to 100 µM, GI mixture, 2 h)
1 | O=c1c(O[C@@H]2O[C@H](CO)[C@@H](O)[C@H](O)[C@H]2O)c(-c2ccc(O)cc2)oc2cc(O)cc(O)c12 [Astragalin, kaempferol-3-O-glucoside] | 4.37 | approximately 13.3% | did not exhibit any cytotoxic effects | 4.31 | – | – | – | –
2 | O=c1c(O)c(-c2ccc(O)cc2)oc2cc(O)cc(O)c12 [Kaempferol, kaempferol] | – | ~97.2% | did not exhibit any cytotoxic effects | – | 236.0 ± 7.2 | 101.1 ± 2.8 | 31.4 ± 0.5 | –
3 | O=C(O)/C=C/c1ccc(O)cc1 [p-Coumaric acid, p-coumaric acid] | < 4.00 | – | did not exhibit any cytotoxic effects | – | – | – | – | remained unaffected

— paper PMC12526004, “Tiliroside Suppresses Uric Acid Production in Hepatocytes and Attenuates Purine-Induced Hyperuricemia in Male ICR Mice” (Molecules, 2025)
